Data on one compound can be found in ChEMBL document CHEMBL4507319 (2021).

Assay [1] concerns the target T1, MAP kinase-activated protein kinase 5 (Homo sapiens) (UniProt Q8IW41).
T1 sequence (whole entry): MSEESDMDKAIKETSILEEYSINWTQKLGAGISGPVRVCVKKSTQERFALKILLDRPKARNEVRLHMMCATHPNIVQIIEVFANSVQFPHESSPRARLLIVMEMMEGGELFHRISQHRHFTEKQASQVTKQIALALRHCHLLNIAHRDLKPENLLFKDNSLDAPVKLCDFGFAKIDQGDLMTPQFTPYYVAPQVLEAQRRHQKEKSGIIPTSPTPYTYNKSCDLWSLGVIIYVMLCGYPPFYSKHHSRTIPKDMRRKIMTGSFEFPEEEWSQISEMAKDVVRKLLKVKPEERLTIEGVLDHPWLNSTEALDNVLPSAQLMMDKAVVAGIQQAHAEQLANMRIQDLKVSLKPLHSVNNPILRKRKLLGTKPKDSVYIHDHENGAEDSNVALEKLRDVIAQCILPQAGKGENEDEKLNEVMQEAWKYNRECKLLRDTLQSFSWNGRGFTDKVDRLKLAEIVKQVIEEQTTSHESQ
As to the kind of experiment: PRAK(h) Eurofins kinase panel. Particulars: Compound concentration 1.0 uM.

The next assay concerns SK-N-FI. In words: SK-N-F1, control cell line Proliferation assay. Format: functional, Homo sapiens. Particulars: time 6 day.
The target of assay [2] is Tyrosine-protein kinase ABL1 (Homo sapiens) (UniProt P00519). As to the kind of experiment: Abl(h) Eurofins kinase panel. As to conditions: Compound concentration 1.0 uM.
Sequence of Tyrosine-protein kinase ABL1 (Homo sapiens) (P00519 whole entry): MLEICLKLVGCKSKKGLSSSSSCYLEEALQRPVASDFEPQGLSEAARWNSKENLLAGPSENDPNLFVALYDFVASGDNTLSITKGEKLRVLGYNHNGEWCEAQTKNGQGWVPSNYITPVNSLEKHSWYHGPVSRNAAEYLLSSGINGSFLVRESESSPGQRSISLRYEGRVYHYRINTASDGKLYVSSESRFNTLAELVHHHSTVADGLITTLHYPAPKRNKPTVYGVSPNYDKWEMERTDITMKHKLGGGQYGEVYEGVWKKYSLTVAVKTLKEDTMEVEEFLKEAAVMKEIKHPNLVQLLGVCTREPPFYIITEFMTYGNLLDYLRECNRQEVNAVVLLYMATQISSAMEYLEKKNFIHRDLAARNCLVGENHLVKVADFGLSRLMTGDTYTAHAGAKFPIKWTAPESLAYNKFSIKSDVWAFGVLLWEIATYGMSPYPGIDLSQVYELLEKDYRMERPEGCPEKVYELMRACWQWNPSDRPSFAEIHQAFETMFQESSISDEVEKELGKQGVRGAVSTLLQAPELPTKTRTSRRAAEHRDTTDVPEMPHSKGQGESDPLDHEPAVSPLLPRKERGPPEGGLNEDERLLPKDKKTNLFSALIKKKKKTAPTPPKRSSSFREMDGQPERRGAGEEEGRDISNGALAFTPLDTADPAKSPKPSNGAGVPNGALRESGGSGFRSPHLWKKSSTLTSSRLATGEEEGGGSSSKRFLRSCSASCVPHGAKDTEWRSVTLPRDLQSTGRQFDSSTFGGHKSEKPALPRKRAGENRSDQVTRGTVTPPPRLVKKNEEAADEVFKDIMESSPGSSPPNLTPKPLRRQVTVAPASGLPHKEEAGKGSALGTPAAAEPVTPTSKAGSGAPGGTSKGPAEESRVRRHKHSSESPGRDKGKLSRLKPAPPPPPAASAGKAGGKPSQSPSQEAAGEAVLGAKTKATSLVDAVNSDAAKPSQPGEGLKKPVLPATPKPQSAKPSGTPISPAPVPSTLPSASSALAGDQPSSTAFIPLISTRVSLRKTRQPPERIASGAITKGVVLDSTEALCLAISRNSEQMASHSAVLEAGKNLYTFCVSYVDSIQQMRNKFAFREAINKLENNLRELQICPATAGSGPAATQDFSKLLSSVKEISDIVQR
Assay [3] addresses Cyclin-dependent kinase 1/cyclin B (Homo sapiens) (UniProt P06493+P14635+Q8WWL7+O95067). In words: CDK1/cyclinB(h) Eurofins kinase panel. It counts as protein-complex assay. As to conditions: Compound concentration 1.0 uM.
The target in assay [4] is T2, Dual specificity tyrosine-phosphorylation-regulated kinase 2 (Homo sapiens) (UniProt Q92630).
T2 sequence (whole entry): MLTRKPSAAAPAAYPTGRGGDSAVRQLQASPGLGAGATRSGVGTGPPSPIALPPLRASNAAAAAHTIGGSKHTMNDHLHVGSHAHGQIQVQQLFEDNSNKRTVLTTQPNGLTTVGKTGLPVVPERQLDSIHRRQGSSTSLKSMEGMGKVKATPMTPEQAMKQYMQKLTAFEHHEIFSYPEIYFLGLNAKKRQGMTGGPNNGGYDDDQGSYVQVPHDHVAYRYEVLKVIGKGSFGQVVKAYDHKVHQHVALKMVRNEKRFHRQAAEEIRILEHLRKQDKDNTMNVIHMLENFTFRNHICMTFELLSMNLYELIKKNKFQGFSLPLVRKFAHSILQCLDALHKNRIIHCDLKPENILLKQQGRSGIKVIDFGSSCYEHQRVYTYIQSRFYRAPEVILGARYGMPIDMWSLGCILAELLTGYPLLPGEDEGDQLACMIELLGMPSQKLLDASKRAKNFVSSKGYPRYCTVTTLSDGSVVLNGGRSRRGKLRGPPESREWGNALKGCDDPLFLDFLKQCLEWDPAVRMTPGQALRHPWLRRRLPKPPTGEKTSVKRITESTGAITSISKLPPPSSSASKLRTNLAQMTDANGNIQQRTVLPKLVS
As to the kind of experiment: DYRK2(h) Eurofins kinase panel. Particulars: Compound concentration 1.0 uM.

The target of assay [5] is T3, SNF-related serine/threonine-protein kinase (Homo sapiens) (UniProt Q9NRH2).
T3 sequence (whole entry): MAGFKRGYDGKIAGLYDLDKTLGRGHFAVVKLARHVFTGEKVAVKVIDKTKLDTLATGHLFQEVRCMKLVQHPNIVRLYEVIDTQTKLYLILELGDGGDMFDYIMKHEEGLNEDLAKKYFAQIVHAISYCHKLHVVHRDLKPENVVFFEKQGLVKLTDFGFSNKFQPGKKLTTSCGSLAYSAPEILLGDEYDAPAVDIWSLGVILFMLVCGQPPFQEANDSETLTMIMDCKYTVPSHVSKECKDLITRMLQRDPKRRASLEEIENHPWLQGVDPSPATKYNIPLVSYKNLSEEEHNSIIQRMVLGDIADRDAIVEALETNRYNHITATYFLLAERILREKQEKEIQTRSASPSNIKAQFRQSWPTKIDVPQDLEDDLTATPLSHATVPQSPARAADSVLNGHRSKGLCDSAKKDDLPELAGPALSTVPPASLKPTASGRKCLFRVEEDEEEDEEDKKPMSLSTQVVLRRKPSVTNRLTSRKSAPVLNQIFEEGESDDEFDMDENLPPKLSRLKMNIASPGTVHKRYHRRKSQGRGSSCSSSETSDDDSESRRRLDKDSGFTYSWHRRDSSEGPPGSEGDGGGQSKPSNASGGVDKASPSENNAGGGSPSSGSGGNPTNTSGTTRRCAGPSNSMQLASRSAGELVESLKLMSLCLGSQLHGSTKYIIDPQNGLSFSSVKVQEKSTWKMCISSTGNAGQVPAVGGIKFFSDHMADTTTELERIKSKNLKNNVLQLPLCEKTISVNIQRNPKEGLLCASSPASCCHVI
In words: SNRK(h) Eurofins kinase panel. As to conditions: Compound concentration 1.0 uM.

Assay [6] has as its target Tyrosine-protein kinase receptor UFO (Homo sapiens) (UniProt P30530). As to the kind of experiment: Axl(h) Eurofins kinase panel. Particulars: Compound concentration 1.0 uM.
For assay [7], the target named is MAP kinase-activated protein kinase 3 (Homo sapiens) (UniProt Q16644). In words: MAPKAP-K3(h) Eurofins kinase panel. As to conditions: Compound concentration 1.0 uM.
Sequence of MAP kinase-activated protein kinase 3 (Homo sapiens) (Q16644 whole entry, looked up): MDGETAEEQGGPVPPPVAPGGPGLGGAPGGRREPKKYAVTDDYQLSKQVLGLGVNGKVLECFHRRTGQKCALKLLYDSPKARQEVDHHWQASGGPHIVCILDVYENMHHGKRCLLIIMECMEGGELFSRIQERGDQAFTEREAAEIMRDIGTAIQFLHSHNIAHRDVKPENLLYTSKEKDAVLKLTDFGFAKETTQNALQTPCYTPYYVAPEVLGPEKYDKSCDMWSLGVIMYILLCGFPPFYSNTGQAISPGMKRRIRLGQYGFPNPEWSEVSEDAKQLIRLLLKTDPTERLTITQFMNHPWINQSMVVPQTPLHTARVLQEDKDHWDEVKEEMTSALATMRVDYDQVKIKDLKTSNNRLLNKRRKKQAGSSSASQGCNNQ
Assay [8] concerns the target T4, Tyrosine-protein kinase TXK (Homo sapiens) (UniProt P42681).
T4 sequence (whole entry): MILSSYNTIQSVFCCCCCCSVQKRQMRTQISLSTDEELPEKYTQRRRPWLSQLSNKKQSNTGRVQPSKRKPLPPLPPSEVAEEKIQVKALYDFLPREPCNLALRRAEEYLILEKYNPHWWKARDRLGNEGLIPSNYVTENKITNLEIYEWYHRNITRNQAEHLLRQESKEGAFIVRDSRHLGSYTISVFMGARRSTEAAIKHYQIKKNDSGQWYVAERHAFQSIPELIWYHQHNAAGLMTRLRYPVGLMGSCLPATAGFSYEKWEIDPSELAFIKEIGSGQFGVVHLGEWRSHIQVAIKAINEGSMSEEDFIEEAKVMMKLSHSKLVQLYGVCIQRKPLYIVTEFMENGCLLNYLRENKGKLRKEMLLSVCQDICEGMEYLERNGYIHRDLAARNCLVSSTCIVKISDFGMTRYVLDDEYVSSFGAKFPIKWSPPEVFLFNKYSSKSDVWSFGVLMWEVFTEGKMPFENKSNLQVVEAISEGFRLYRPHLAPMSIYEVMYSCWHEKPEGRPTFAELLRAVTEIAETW
In words: Txk(h) Eurofins kinase panel. Particulars: Compound concentration 1.0 uM.

Sequence of Tyrosine-protein kinase receptor UFO (Homo sapiens) (P30530 whole entry): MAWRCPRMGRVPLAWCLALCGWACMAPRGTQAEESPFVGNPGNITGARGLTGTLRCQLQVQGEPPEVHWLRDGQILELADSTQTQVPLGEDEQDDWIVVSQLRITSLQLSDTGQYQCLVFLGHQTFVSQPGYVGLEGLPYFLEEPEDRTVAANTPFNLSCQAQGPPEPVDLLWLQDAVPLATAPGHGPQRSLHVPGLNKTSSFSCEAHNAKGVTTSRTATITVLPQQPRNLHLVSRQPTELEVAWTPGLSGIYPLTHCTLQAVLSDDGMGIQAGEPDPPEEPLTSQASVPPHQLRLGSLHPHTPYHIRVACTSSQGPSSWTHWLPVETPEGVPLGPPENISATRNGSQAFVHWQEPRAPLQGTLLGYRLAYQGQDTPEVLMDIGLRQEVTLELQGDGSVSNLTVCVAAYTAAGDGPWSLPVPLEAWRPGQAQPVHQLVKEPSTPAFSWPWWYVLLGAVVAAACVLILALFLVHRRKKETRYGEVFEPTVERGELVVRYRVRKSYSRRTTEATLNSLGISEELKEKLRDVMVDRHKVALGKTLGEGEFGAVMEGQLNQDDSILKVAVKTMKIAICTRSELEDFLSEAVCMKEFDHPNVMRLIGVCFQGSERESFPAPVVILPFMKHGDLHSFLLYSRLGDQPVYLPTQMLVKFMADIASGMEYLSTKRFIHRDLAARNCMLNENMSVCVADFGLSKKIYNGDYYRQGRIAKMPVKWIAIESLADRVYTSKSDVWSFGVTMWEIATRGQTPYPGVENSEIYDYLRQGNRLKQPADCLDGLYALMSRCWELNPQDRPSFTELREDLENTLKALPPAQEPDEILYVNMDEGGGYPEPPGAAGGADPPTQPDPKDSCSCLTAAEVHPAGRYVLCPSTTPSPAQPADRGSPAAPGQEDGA

Take `CCc1ccccc1C(=O)Nc1n[nH]c2c(C)c(F)c(C3C(C#N)=C(C)N(C)C(C)=C3C#N)cc12` [BAY-3827]: the % residual kinase activity in assay [1] was 87%; in assay [2] it was 131%; in assay [3], 98%; in [4], 100%; in [5], 113%; in assay [6], 100%. Further, the figures for the % residual kinase activity in assay [7] and in [8] were 106% and 111%, respectively. In the assay on SK-N-FI, the “Cell Proliferation IC50” value stood at 21.2 µM.
